Results reported in US10118935B2, “Melampomagnolide B dimers” (priority 2014, dated 2018).

Tests used:
[1] = test system: NCI-H522; test: NCI 60 cell line five dose, Non-Small Cell Lung Cancer
[2] = test system: MALME-3M; test: NCI 60 cell line five dose, Melanoma; conditions: MAL1ME−3M
[3] = test system: SNB-75; test: NCI 60 cell line five dose, CNS Cancer
[4] = test system: HCT-116; test: NCI 60 cell line five dose, Colon Cancer
[5] = test system: OVCAR-8; test: NCI 60 cell line five dose, Ovarian Cancer
[6] = test system: SK-MEL-2; test: NCI 60 cell line five dose, Melanoma
[7] = test system: OVCAR-5; test: NCI 60 cell line five dose, Ovarian Cancer
[8] = test system: SK-MEL-5; test: NCI 60 cell line five dose, Melanoma
[9] = test system: MDA-MB-231/ATCC; test: NCI 60 cell line five dose, Breast Cancer
[10] = test system: NCI-H322M; test: NCI 60 cell line five dose, Non-Small Cell Lung Cancer
[11] = test system: M9ENL AML cell lines; conditions: read-out: LC50; M9ENL AML cell lines; after 24 hours of drug exposure
[12] = test system: MCF7; test: NCI 60 cell line five dose, Breast Cancer
[13] = test system: OVCAR-3; test: NCI 60 cell line five dose, Ovarian Cancer
[14] = test system: SW-620; test: NCI 60 cell line five dose, Colon Cancer
[15] = test system: NCI-H23; test: NCI 60 cell line five dose, Non-Small Cell Lung Cancer
[16] = test system: MDA-MB-468; test: NCI 60 cell line five dose, Breast Cancer
[17] = test system: U251; test: NCI 60 cell line five dose, CNS Cancer
[18] = test system: LOX IMVI; test: NCI 60 cell line five dose, Melanoma
[19] = test system: BT-549; test: NCI 60 cell line five dose, Breast Cancer
[20] = test system: MDA-MB-435; test: NCI 60 cell line five dose, Melanoma
[21] = test system: RPMI-8226; test: NCI 60 cell line five dose, Leukemia
[22] = test system: A549/ATCC; test: NCI 60 cell line five dose, Non-Small Cell Lung Cancer

## C=C1C(=O)O[C@H]2[C@H]1CC/C(COC(=O)NCCCCCCCCNC(=O)OC/C1=C/CC[C@@]3(C)O[C@H]3[C@H]3OC(=O)C(=C)[C@@H]3CC1)=C\CC[C@@]1(C)O[C@@H]21 [JVM 3-62, bis(((1aR,7aS, 10aS, 10bS, E)-1a-Methyl-8-methylene-9-oxo-1a,2,3,6,7,7a,8,9,10a,10b-decahydrooxireno[2′,3′:9,10]cyclodeca[1,2-b]furan-5-yl)methyl)octane-1,8-diyldicarbamate]
[1]; Log10 Concentration −4.0
  Percent Growth: −66%
[1]; Log10 Concentration −5.0
  Percent Growth: −75%
[1]; Log10 Concentration −6.0
  Percent Growth: −57%
[1]; Log10 Concentration −7.0
  Percent Growth: 89%
[1]; Log10 Concentration −8.0
  Percent Growth: 86%
[1]; molar
  GI50: 186 nM
  TGI: 4.07E−7
[1]; read-out: LC50, molar
  CC50: 893 nM
[2]; Log10 Concentration −4.0
  Percent Growth: −65%
[2]; Log10 Concentration −5.0
  Percent Growth: −58%
[2]; Log10 Concentration −6.0
  Percent Growth: −55%
[2]; Log10 Concentration −7.0
  Percent Growth: 95%
[2]; Log10 Concentration −8.0
  Percent Growth: 95%
[2]; molar
  GI50: 199 nM
[2]; read-out: LC50, molar
  CC50: 929 nM
[3]; Log10 Concentration −4.0
  Percent Growth: −100%
[3]; Log10 Concentration −5.0
  Percent Growth: −51%
[3]; Log10 Concentration −6.0
  Percent Growth: 61%
[3]; Log10 Concentration −7.0
  Percent Growth: 78%
[3]; Log10 Concentration −8.0
  Percent Growth: 72%
[3]; molar
  GI50: 1250 nM
[3]; read-out: LC50, molar
  CC50: 9840 nM
[4]; Log10 Concentration −4.0
  Percent Growth: −86%
[4]; Log10 Concentration −5.0
  Percent Growth: −92%
[4]; Log10 Concentration −6.0
  Percent Growth: −62%
[4]; Log10 Concentration −7.0
  Percent Growth: 97%
[4]; Log10 Concentration −8.0
  Percent Growth: 98%
[4]; molar
  GI50: 195 nM
  TGI: 4.07E−7
[4]; read-out: LC50, molar
  CC50: 837 nM
[5]; Log10 Concentration −4.0
  Percent Growth: −55%
[5]; Log10 Concentration −5.0
  Percent Growth: −51%
[5]; Log10 Concentration −6.0
  Percent Growth: 6%
[5]; Log10 Concentration −7.0
  Percent Growth: 96%
[5]; Log10 Concentration −8.0
  Percent Growth: 100%
[5]; molar
  GI50: 326 nM
[5]; read-out: LC50, molar
  CC50: 6770 nM
[6]; Log10 Concentration −4.0
  Percent Growth: −68%
[6]; Log10 Concentration −5.0
  Percent Growth: −45%
[6]; Log10 Concentration −6.0
  Percent Growth: 36%
[6]; Log10 Concentration −7.0
  Percent Growth: 100%
[6]; Log10 Concentration −8.0
  Percent Growth: 92%
[6]; molar
  GI50: 601 nM
  TGI: 2.79E−6
[7]; Log10 Concentration −4.0
  Percent Growth: −77%
[7]; Log10 Concentration −5.0
  Percent Growth: −80%
[7]; Log10 Concentration −6.0
  Percent Growth: −4%
[7]; Log10 Concentration −7.0
  Percent Growth: 91%
[7]; Log10 Concentration −8.0
  Percent Growth: 92%
[7]; molar
  GI50: 269 nM
  TGI: 9.12E−7
[7]; read-out: LC50, molar
  CC50: 4040 nM
[8]; Log10 Concentration −4.0
  Percent Growth: −87%
[8]; Log10 Concentration −5.0
  Percent Growth: −89%
[8]; Log10 Concentration −6.0
  Percent Growth: 63%
[8]; Log10 Concentration −7.0
  Percent Growth: 95%
[8]; Log10 Concentration −8.0
  Percent Growth: 99%
[8]; molar
  GI50: 1210 nM
  TGI: 2.59E−6
[8]; read-out: LC50, SK-MEL-6, molar
  CC50: 5530 nM
[9]; Log10 Concentration −4.0
  Percent Growth: −80%
[9]; Log10 Concentration −5.0
  Percent Growth: −78%
[9]; Log10 Concentration −6.0
  Percent Growth: −47%
[9]; Log10 Concentration −7.0
  Percent Growth: 92%
[9]; Log10 Concentration −8.0
  Percent Growth: 99%
[9]; molar
  GI50: 200 nM
  TGI: 4.58E−7
[9]; read-out: LC50, molar
  CC50: 1240 nM
[10]; Log10 Concentration −4.0
  Percent Growth: −91%
[10]; Log10 Concentration −5.0
  Percent Growth: −51%
[10]; Log10 Concentration −6.0
  Percent Growth: 100%
[10]; Log10 Concentration −7.0
  Percent Growth: 104%
[10]; Log10 Concentration −8.0
  Percent Growth: 107%
[10]; molar
  GI50: 2140 nM
[11]
  CC50: 1000 nM
[12]; Log10 Concentration −4.0
  Percent Growth: −54%
[12]; Log10 Concentration −5.0
  Percent Growth: −75%
[12]; Log10 Concentration −6.0
  Percent Growth: −7%
[12]; Log10 Concentration −7.0
  Percent Growth: 80%
[12]; Log10 Concentration −8.0
  Percent Growth: 89%
[12]; molar
  GI50: 221 nM
  TGI: 8.33E−7
[12]; read-out: LC50, molar
  CC50: 4300 nM
[13]; Log10 Concentration −4.0
  Percent Growth: −100%
[13]; Log10 Concentration −5.0
  Percent Growth: −98%
[13]; Log10 Concentration −6.0
  Percent Growth: 3%
[13]; Log10 Concentration −7.0
  Percent Growth: 101%
[13]; Log10 Concentration −8.0
  Percent Growth: 102%
[13]; molar
  GI50: 330 nM
  TGI: 1.08E−6
[13]; read-out: LC50, molar
  CC50: 3320 nM
[14]; Log10 Concentration −4.0
  Percent Growth: −77%
[14]; Log10 Concentration −5.0
  Percent Growth: −79%
[14]; Log10 Concentration −6.0
  Percent Growth: −18%
[14]; Log10 Concentration −7.0
  Percent Growth: 91%
[14]; Log10 Concentration −8.0
  Percent Growth: 91%
[14]; molar
  GI50: 239 nM
  TGI: 6.86E−7
[14]; read-out: LC50, molar
  CC50: 3370 nM
[15]; Log10 Concentration −4.0
  Percent Growth: −78%
[15]; Log10 Concentration −5.0
  Percent Growth: −85%
[15]; Log10 Concentration −6.0
  Percent Growth: 27%
[15]; Log10 Concentration −7.0
  Percent Growth: 100%
[15]; Log10 Concentration −8.0
  Percent Growth: 100%
[15]; molar
  GI50: 485 nM
  TGI: 1.74E−6
[15]; read-out: LC50, molar
  CC50: 4860 nM
[16]; Log10 Concentration −4.0
  Percent Growth: −70%
[16]; Log10 Concentration −5.0
  Percent Growth: −81%
[16]; Log10 Concentration −6.0
  Percent Growth: −43%
[16]; Log10 Concentration −7.0
  Percent Growth: 86%
[16]; Log10 Concentration −8.0
  Percent Growth: 100%
[16]; molar
  GI50: 190 nM
  TGI: 4.62E−7
[16]; read-out: LC50, molar
  CC50: 1500 nM
[17]; Log10 Concentration −4.0
  Percent Growth: −77%
[17]; Log10 Concentration −5.0
  Percent Growth: −79%
[17]; Log10 Concentration −6.0
  Percent Growth: −18%
[17]; Log10 Concentration −7.0
  Percent Growth: 91%
[17]; Log10 Concentration −8.0
  Percent Growth: 96%
[17]; molar
  GI50: 578 nM
  TGI: 2.00E−6
[17]; read-out: LC50, molar
  CC50: 5130 nM
[18]; Log10 Concentration −4.0
  Percent Growth: −81%
[18]; Log10 Concentration −5.0
  Percent Growth: −90%
[18]; Log10 Concentration −6.0
  Percent Growth: −69%
[18]; Log10 Concentration −7.0
  Percent Growth: 90%
[18]; Log10 Concentration −8.0
  Percent Growth: 98%
[18]; molar
  GI50: 178 nM
[18]; read-out: LC50, molar
  CC50: 761 nM
[19]; Log10 Concentration −4.0
  Percent Growth: −85%
[19]; Log10 Concentration −5.0
  Percent Growth: −80%
[19]; Log10 Concentration −6.0
  Percent Growth: −14%
[19]; Log10 Concentration −7.0
  Percent Growth: 94%
[19]; Log10 Concentration −8.0
  Percent Growth: 94%
[19]; molar
  GI50: 257 nM
  TGI: 7.48E−7
[19]; read-out: LC50, molar
  CC50: 3570 nM
[20]; Log10 Concentration −4.0
  Percent Growth: −86%
[20]; Log10 Concentration −5.0
  Percent Growth: −74%
[20]; Log10 Concentration −6.0
  Percent Growth: −18%
[20]; Log10 Concentration −7.0
  Percent Growth: 92%
[20]; Log10 Concentration −8.0
  Percent Growth: 91%
[20]; molar
  GI50: 241 nM
  TGI: 6.86E−7
[20]; read-out: LC50, molar
  CC50: 3740 nM
[21]; Log10 Concentration −4.0
  Percent Growth: −38%
[21]; Log10 Concentration −5.0
  Percent Growth: −45%
[21]; Log10 Concentration −6.0
  Percent Growth: −13%
[21]; Log10 Concentration −7.0
  Percent Growth: 92%
[21]; Log10 Concentration −8.0
  Percent Growth: 98%
[21]; molar
  GI50: 250 nM
  TGI: 7.45E−7
[21]; read-out: LC50, molar
  CC50: > 100000 nM
[22]; Log10 Concentration −4.0
  Percent Growth: −84%
[22]; Log10 Concentration −5.0
  Percent Growth: −72%
[22]; Log10 Concentration −6.0
  Percent Growth: 87%
[22]; Log10 Concentration −7.0
  Percent Growth: 96%
[22]; Log10 Concentration −8.0
  Percent Growth: 96%
[22]; molar
  GI50: 1700 nM
  TGI: 3.51E−6
[22]; read-out: LC50, molar
  CC50: 7260 nM
